Experiment: in vitro
Settings: human, hela cells, % viability

Row | SMILES | viability at 28.5 h, 10 µM [%]
1 | N#C/C(=C\c1cn(-c2ccccc2)nc1-c1ccc(S(=O)(=O)N2CCOCC2)cc1)c1nc2ccccc2c(=O)[nH]1 [CBK266343] | 104
2 | COc1cccc(OCC(=O)NCC(c2ccsc2)N2CCCC2)c1 (stereo not drawn) [CBK304630] | 89.6
3 | O=C(C[C@@H]1CCNC[C@@H]1Cc1cc(-c2ccccc2)on1)NC1CC1 [CBK289146] | 88
4 | O=C(NCc1cccc(C(F)(F)F)c1)N1CCN(CCc2ccccc2)CC1 [CBK158902] | 90.1
5 | Cc1cc(C)n(-c2nc3cc(Cl)ccc3nc2Nc2ccc3c(c2)OCO3)n1 [CBK268380] | 91.9
6 | CCc1ccc(CN2CCN(C(=O)c3ccncc3)CC2)cc1 [CBK301211G] | 92.7
7 | Cc1cccc(C(=O)N[C@@H](C)Cn2nc3c(cc2=O)CCCC3)c1 [CBK284563] | 89.1
8 | CCOc1ccc(CN2CCN(C(=O)c3ccc(-c4ccccc4)cc3)CC2)cc1 [CBK263399] | 99.9
9 | COC(=O)c1ccccc1NC(=O)CN(C)S(=O)(=O)c1c(C)cc(C)cc1C [CBK266241] | 110
10 | OCCNCCOc1ccc(Cl)cc1Br [CBK265083G] | 116
11 | COc1c(C)cccc1C(=O)N1CCC(c2cc3cnccc3[nH]2)CC1 [CBK283460] | 89.9
12 | CCOC(=O)CN1C(=O)S/C(=C/c2cc(Cl)c(OCC(=O)O)c(Br)c2)C1=O [CBK264614] | 106
13 | COc1ccc(CNCc2ccc(Cl)cc2)cc1OC [CBK263315] | 95.4
14 | O=C(CCCN1C(=O)c2cccc3cccc(c23)C1=O)Nc1cccnc1 [CBK262560] | 81.5
15 | Nc1nc2ccccc2c(=O)[nH]1 [CBK028707] | 101
16 | CC(C)Nc1nc2ccccc2nc1OCc1ccc(C2CC2C(=O)N(C)C)cc1 (stereo not drawn) [CBK166091] | 92.5
17 | CN(Cc1ccc(F)cc1F)C(=O)Cn1nc2n(c1=O)CCCCC2 [CBK304598] | 86.3
18 | CCNc1ncc(C(=O)N2CCOC(c3ccc(F)c(C)c3)C2)s1 (stereo not drawn) [CBK306375] | 95.4
19 | Cc1cc(C)n(CC2CN(CC(=O)NCc3ccccn3)CCO2)n1 (stereo not drawn) [CBK305344] | 107
20 | CC(C)Cc1ccc(S(=O)(=O)Nc2ccc3[nH]c(=O)[nH]c3c2)cc1 [CBK270131] | 94.3
21 | COc1cc(C(=O)Nc2ccc(N3CCN(C)CC3)cc2)ccc1OCc1ccc(Cl)cc1 [CBK266116] | 99

Row | SMILES | viability at 28.5 h, 10 µM [%]
22 | Cc1nc(CN2CCC(C(=O)c3ccc(F)cc3)CC2)cs1 [CBK149147] | 103
23 | Cc1cc2ccccc2n2c(SCC(=O)NCCc3ccccc3)nnc12 [CBK265682] | 111
24 | COc1ccc(S(=O)(=O)NCCCn2ccnc2)cc1Cl [CBK269997] | 97.2
25 | COc1ccc(CN(Cc2ccc(OC)cc2)Cc2ccc(S(=O)(=O)N3CCOC3=O)cc2)cc1 [CBK014818] | 110
26 | CC(C)Nc1cccnc1N1CCN(C(=O)c2cc3cc(NC(=O)N4CCOCC4)ccc3[nH]2)CC1 [CBK007872] | 96.2
27 | Cc1ccc(C(=O)N2CN(C(=O)CN3CCOCC3)CC(C)(C)C2)cc1 [CBK039190] | 105
28 | Cn1cncc1CN(Cc1ccccn1)Cc1ccccc1Cl [CBK282129] | 105
29 | O=C(CSc1nnc(-c2ccncc2)n1-c1ccccc1)N/N=C/c1coc2ccccc2c1=O [CBK262866] | 101
30 | Cc1cc(NC(=O)CS(=O)(=O)Cc2cccc(C(F)(F)F)c2)no1 [CBK304520] | 99.3
31 | NC(=O)CN(Cc1ccc(Cl)cc1)S(=O)(=O)c1ccccc1 [CBK264149] | 99.5
32 | CC1CCCC(N2CCN(Cc3ccccn3)CC2)C1 (stereo not drawn) [CBK263450] | 93
33 | Cc1ccccc1NS(=O)(=O)c1cc(C(=O)Nc2ccc(S(=O)(=O)N3CCCC3)cc2)ccc1C [CBK269004] | 92.9
34 | Cc1nn(C)c(C)c1CCC(=O)OCc1cc(=O)n2ccccc2n1 [CBK305690] | 90.8
35 | O=C(NCCCn1ccnc1)c1ncoc1-c1ccccc1 [CBK283887] | 99
36 | Cc1nc(NC(CC(C)C)C(=O)O)c2nc(C)oc2n1 (stereo not drawn) [CBK022157] | 115
37 | O=C(CN1CCC(c2ccccc2F)CC1)N1CCCCC1 [CBK283577] | 97.3
38 | O=C(N/N=C/C=C/c1ccc([N+](=O)[O-])cc1)C(O)c1ccccc1 (stereo not drawn) [CBK261373] | 81.5
39 | CCCn1cc(C(=O)NCc2ccc(Cl)cc2)c(=O)c2cc(CN3CCOCC3)sc21 [CBK018478] | 93.8
40 | Cc1ccc(CCC(=O)N2CCNCC2C)c(C)c1 (stereo not drawn) [CBK304481] | 90
41 | N/C(=N\OC(=O)CSc1ccccc1)c1ccccn1 [CBK266056] | 105
42 | COc1ccc(C(=O)C(OC(=O)c2cc(O)nc3ccccc23)c2ccccc2)cc1 (stereo not drawn) [CBK264083] | 97.1

Row | SMILES | viability at 28.5 h, 10 µM [%]
43 | Cc1cc(C)c(C)c(S(=O)(=O)NCCOCCO)c1C [CBK269153] | 88.6
44 | O=C(CCN1CCOCC1)Nc1cc(Cl)cc(Cl)c1 [CBK057021] | 119
45 | Cc1cc(C(=O)Nc2ccc(S(=O)(=O)N3CC(C)OC(C)C3)cc2)c2ccccc2n1 (stereo not drawn) [CBK295170] | 87.4
46 | Cc1cccc(NC(=O)CSc2ncnc3sc4c(c23)CCC(C)C4)c1 (stereo not drawn) [CBK265738] | 102
47 | CC(Oc1cccc(C#N)c1)C(=O)NCC1(N2CCOCC2)CCSC1 (stereo not drawn) [CBK305780] | 94.8
48 | C/C(=N\N=C1\N=C(O)C(CC(=O)NCc2ccccc2)S1)c1ccco1 (stereo not drawn) [CBK263698] | 89.9
49 | O=[S+]([O-])(c1ccccc1)N1CCC(N(CCc2ccccc2)Cc2ccccc2)CC1 [CBK264617G] | 102
50 | COc1ccc(C(C)C)cc1-c1cncc(NCC(c2cccnc2)N(C)C)n1 (stereo not drawn) [CBK037132] | 110
51 | Cc1ccc(F)c(CN2CCN(CCO)[C@@H]3CS(=O)(=O)C[C@@H]32)c1 [CBK307699] | 93.6
52 | COc1ccc(Br)cc1S(=O)(=O)Nc1nc(C)c(C(=O)O)s1 [CBK045558] | 106
53 | O=C(c1cccc(F)c1)N1CCCC1c1n[nH]cc1-c1ccncc1 (stereo not drawn) [CBK283437] | 93.2
54 | Cc1nc(=O)c(-c2ccccc2)c(C)n1CCc1c[nH]cn1 [CBK287900] | 89.3
55 | CC1NC(C(=O)O)Cc2c1[nH]c1ccccc21 (stereo not drawn) [CBK218664] | 102
56 | COc1ccc(C(=O)Nc2ccccc2)cc1NC(=O)c1cc(C(F)(F)F)cc(C(F)(F)F)c1 [CBK263465] | 90
57 | COc1cc2c(cc1OC)CN(C(=O)c1ccccn1)CC2 [CBK115864] | 98.5
58 | COc1ccc(C2(NCc3ccc(N4CCCC4=O)cc3)CC2)cc1 [CBK282834] | 103
59 | O=C(CCn1cccn1)N1CCC(c2cc3ncccc3[nH]2)CC1 [CBK284457] | 83.6
60 | COc1ccc(C(=O)Nc2ccc(N3CCN(C(=O)C(C)(C)C)CC3)cc2)cc1 [CBK270266] | 99
61 | CCc1cccc(CC)c1NC(=O)CN(c1cccc(Br)c1)S(C)(=O)=O [CBK265986] | 84.9
62 | O=C(Nc1nnc(-c2ccco2)o1)c1ccc(N2C(=O)CCC2=O)cc1 [CBK287423] | 90.7
63 | O=c1nc(NS(=O)(=O)c2ccc(Oc3ccccc3)cc2)c(F)c[nH]1 [CBK067571] | 89.3
